Our source for the Ki values is US8354441B2, “Oxazoline derivatives” (Hoffmann-La Roche Inc., priority 2009, dated 2013).

Structures are written as SMILES.

The target in test [1] is T1, mouse TAAR1 (Mus musculus, UniProt Q923Y8).
T1 construct: expressed in transfected cells; host or cells: HEK293 (ATCC # CRL-1573), stably transfected with pIRESneo2 expression plasmid
Put plainly: TAAR1 radioligand binding with [3H]-rac-2-(1,2,3,4-tetrahydro-1-naphthyl)-2-imidazoline, membranes of stably transfected HEK293 cells. The conditions noted are these: first value of the cell, read-out: Ki (μM) mouse/rat: mouse. The method, then: (§1) For the construction of expression plasmids the coding sequences of human, rat and mouse TAAR 1 were amplified from genomic DNA essentially as described by Lindemann et al.. The Expand High Fidelity PCR System (Roche Diagnostics) was used with 1.5 mM Mg^2+ and purified PCR products were cloned into pCR2.1-TOPO cloning vector (Invitrogen) following the instructions of the manufacturer. PCR products were subcloned into the pIRESneo2 vector (BD Clontech, Palo Alto, Calif.), and expression vectors were sequence verified before introduction in cell lines.
(§2) HEK293 cells (ATCC # CRL-1573) were cultured essentially as described by Lindemann et al. (2005). For the generation of stably transfected cell lines HEK293 cells were transfected with the pIRESneo2 expression plasmids containing the TAAR coding sequences (described above) with Lipofectamine 2000 (Invitrogen) according to the instructions of the manufacturer, and 24 hrs post transfection the culture medium was supplemented with 1 mg/ml G418 (Sigma, Buchs, Switzerland). After a culture period of about 10 d clones were isolated, expanded and tested for responsiveness to trace amines (all compounds purchased from Sigma) with the cAMP Biotrak Enzyme immunoassay (EIA) System (Amersham) following the non-acetylation EIA procedure provided by the manufacturer.
(§3) Cells at confluence were rinsed with ice-cold phosphate buffered saline without Ca^2+ and Mg^2+ containing 10 mM EDTA and pelleted by centrifugation at 1000 rpm for 5 min at 4° C. The pellet was then washed twice with ice-cold phosphate buffered saline and the cell pellet was frozen immediately by immersion in liquid nitrogen and stored until use at −80° C. The cell pellet was then suspended in 20 ml HEPES-NaOH (20 mM), pH 7.4 containing 10 mM EDTA, and homogenized with a Polytron (PT 3000, Kinematica) at 10,000 rpm for 10 s. The homogenate was centrifuged at 48,000×g for 30 min at 4° C. and the pellet resuspended in 20 ml HEPES-NaOH (20 mM), pH 7.4 containing 0.1 mM EDTA (buffer A), and homogenized with a Polytron at 10,000 rpm for 10 s. The homogenate was then centrifuged at 48,000×g for 30 min at 4° C. and the pellet resuspended in 20 ml buffer A, and homogenized with a Polytron at 10,000 rpm for 10 s. Protein concentration was determined by the method of Pierce (Rockford, Ill.). The homogenate was then centrifuged at 48,000×g for 10 min at 4° C., resuspended in HEPES-NaOH (20 mM), pH 7.0 including MgCl2 (10 mM) and […] homogenized with a Polytron at 10,000 rpm for 10 s.
(§4) The binding assay was performed at 4° C. in a final volume of 1 ml, and with an incubation time of 30 min. The radioligand [^3H]-rac-2-(1,2,3,4-tetrahydro-1-naphthyl)-2-imidazoline was used at a concentration equal to the calculated Kd value of 60 nM to give a bound at around 0.1% of the total added radioligand concentration, and a specific binding which represented approximately 70-80% of the total binding. Non-specific binding was defined as the amount of [^3H]-rac-2-(1,2,3,4-tetrahydro-1-naphthyl)-2-imidazoline bound in the presence of the appropriate unlabelled ligand (10 μM). Competing ligands were tested in a wide range of concentrations (10 pM-30 μM). […] Each experiment was performed in duplicate. All incubations were terminated by rapid filtration through UniFilter-96 plates (Packard Instrument Company) and glass filter GF/C, pre-soaked for at least 2 h in polyethylenimine 0.3%, and using a Filtermate 96 Cell Harvester (Packard Instrument Company). The tubes and filters were then washed 3 times with 1 ml aliquots of cold buffer B. Filters were not dried and soaked in Ultima gold (45 μl/well, Packard Instrument Company) and bound radioactivity was counted by a TopCount Microplate Scintillation Counter (Packard Instrument Company).

Test [2] has as its target T2, rat TAAR1 (Rattus norvegicus, UniProt Q923Y9).
T2 construct: expressed in transfected cells; host or cells: HEK293 (ATCC # CRL-1573), stably transfected with pIRESneo2 expression plasmid
The test is described as above. The conditions noted are these: second value of the cell, read-out: Ki (μM) mouse/rat: rat. The method, then: as §1, §2, §3, §4

T1 sequence (Q923Y8 whole entry): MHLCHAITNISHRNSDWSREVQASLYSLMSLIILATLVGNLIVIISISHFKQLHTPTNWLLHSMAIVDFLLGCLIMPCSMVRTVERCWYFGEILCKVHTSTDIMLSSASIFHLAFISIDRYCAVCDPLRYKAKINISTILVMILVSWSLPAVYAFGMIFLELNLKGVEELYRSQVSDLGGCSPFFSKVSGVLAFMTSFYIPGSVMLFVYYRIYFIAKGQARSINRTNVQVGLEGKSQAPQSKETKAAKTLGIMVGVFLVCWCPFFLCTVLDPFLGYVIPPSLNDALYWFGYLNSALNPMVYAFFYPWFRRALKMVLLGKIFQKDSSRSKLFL
T2 sequence (Q923Y9 whole entry): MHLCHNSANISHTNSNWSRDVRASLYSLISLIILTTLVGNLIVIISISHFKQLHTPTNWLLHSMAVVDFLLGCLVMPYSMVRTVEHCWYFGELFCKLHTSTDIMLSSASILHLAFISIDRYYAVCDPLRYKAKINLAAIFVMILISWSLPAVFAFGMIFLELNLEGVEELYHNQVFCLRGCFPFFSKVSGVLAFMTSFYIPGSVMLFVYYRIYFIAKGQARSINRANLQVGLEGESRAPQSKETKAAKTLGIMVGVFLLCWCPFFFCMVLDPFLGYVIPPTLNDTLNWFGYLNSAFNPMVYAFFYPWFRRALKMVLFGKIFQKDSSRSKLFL

Consider `NC1=N[C@@H](CCc2ccc(NC(=O)CCc3ccccc3Cl)cc2)CO1` [Example 80, N-{4-[2-((S)-2-Amino-4,5-dihydro-oxazol-4-yl)-ethyl]-phenyl}-3-(2-chloro-phenyl)-propionamide], for which the Ki is 0.0014 µM in test [1] and 0.0011 µM in test [2].
As to `COc1cc(C(=O)Nc2ccc(CC[C@H]3COC(N)=N3)cc2)nc(C(C)C)n1` [Example 207, 2-Isopropyl-6-methoxy-pyrimidine-4-carboxylic acid {4-[2-((S)-2-amino-4,5-dihydro-oxazol-4-yl)-ethyl]-phenyl}-amide], the Ki in test [1] stood at 0.0007 µM; in test [2], 0.0011 µM.
The matching figures for `CC(C)c1sc(N(C)C)nc1C(=O)Nc1ccc(CC[C@H]2COC(N)=N2)cc1` [Example 189, (S)-N-(4-(2-(2-Amino-4,5-dihydrooxazol-4-yl)ethyl)phenyl)-2-(dimethylamino)-5-isopropylthiazole-4-carboxamide]: 0.0008 µM and 0.0018 µM.
With `Cc1ccc(C(=O)Nc2ccc(CC[C@H]3COC(N)=N3)cc2)cn1` [Example 98, N-{4-[2-((S)-2-Amino-4,5-dihydro-oxazol-4-yl)-ethyl]-phenyl}-6-methyl-nicotinamide], the Ki in test [1] came out at 0.0068 µM; in test [2] it was 0.0019 µM.
Turning to `COc1ccc(OC(=O)Nc2ccc(CC[C@H]3COC(N)=N3)cc2)cc1` [Example 147, {4-[2-((S)-2-Amino-4,5-dihydro-oxazol-4-yl)-ethyl]-phenyl}-carbamic acid 4-methoxy-phenyl ester], the Ki in test [1] was 0.0006 µM; in test [2] it was 0.0003 µM.
On the same counts, the results for `NC1=N[C@@H](CCc2ccc(NC(=O)c3ccc(Br)nc3)cc2)CO1` [Example 106, N-{4-[2-((S)-2-Amino-4,5-dihydro-oxazol-4-yl)-ethyl]-phenyl}-6-bromo-nicotinamide] are 0.0012 µM and 0.0009 µM.
As to `NC1=N[C@@H](CCc2ccc(NC(=O)Cc3ccc(Cl)cc3)cc2)CO1` [Example 70, N-{4-[2-((S)-2-Amino-4,5-dihydro-oxazol-4-yl)-ethyl]-phenyl}-2-(4-chloro-phenyl)-acetamide], the Ki in test [1] and in test [2] was 0.001 µM each time.
As to `CCc1cncc(C(=O)Nc2ccc(CC[C@H]3COC(N)=N3)cc2)n1` [Example 211, (S)-N-(4-(2-(2-Amino-4,5-dihydrooxazol-4-yl)ethyl)phenyl)-6-ethylpyrazine-2-carboxamide], the Ki came out at 0.0023 µM in test [1] and 0.0024 µM in test [2].
`COc1ncc(C(=O)Nc2ccc(CC[C@H]3COC(N)=N3)cc2)cn1` [Example 83, 2-Methoxy-pyrimidine-5-carboxylic acid {4-[2-((S)-2-amino-4,5-dihydro-oxazol-4-yl)-ethyl]-phenyl}-amide]: the results for the Ki in test [1] and in test [2] were 0.0074 µM and 0.0052 µM, respectively.
On the same counts, the results for `NC1=NC(c2ccc(NC(=O)Nc3ccc(Cl)cc3)cc2)CO1` (racemic) [Example 1, (RS)-1-[4-(2-Amino-4,5-dihydro-oxazol-4-yl)-phenyl]-3-(4-chloro-phenyl)-urea] are 0.0026 µM and 0.0005 µM.
Take `NC1=N[C@@H](CCc2ccc(NC(=O)c3ccnc(Cl)c3)cc2)CO1` [Example 173, (S)-N-(4-(2-(2-Amino-4,5-dihydrooxazol-4-yl)ethyl)phenyl)-2-chloroisonicotinamide]: the Ki in test [1] and in test [2] was 0.0014 µM throughout.
Consider `CC(C)(C(=O)Nc1ccc(CC[C@H]2COC(N)=N2)cc1)c1ccc(Cl)cc1` [Example 72, N-{4-[2-((S)-2-Amino-4,5-dihydro-oxazol-4-yl)-ethyl]-phenyl}-2-(4-chloro-phenyl)-isobutyramide], for which the figures for the Ki in test [1] and in test [2] were 0.0008 µM and 0.001 µM, respectively.
The matching figures for `NC1=N[C@@H](CCc2ccc(NC(=O)c3cnc(C(F)(F)F)cn3)cc2)CO1` [Example 159, (S)-N-(4-(2-(2-Amino-4,5-dihydrooxazol-4-yl)ethyl)phenyl)-5-(trifluoromethyl)pyrazine-2-carboxamide]: 0.001 µM and 0.0024 µM.
`NC1=N[C@@H](CCc2ccc(NC(=O)c3ccc(Cl)cc3F)cc2)CO1` [Example 136, (S)-N-(4-(2-(2-Amino-4,5-dihydrooxazol-4-yl)ethyl)phenyl)-4-chloro-2-fluorobenzamide]: the results for the Ki in test [1] and in test [2] were 0.0003 µM and 0.0006 µM, respectively.
The matching figures for `COC(C(=O)Nc1ccc(CC[C@H]2COC(N)=N2)cc1)c1ccc(Br)cc1` (stereo partly drawn) [Example 73, N-{4-[2-((S)-2-Amino-4,5-dihydro-oxazol-4-yl)-ethyl]-phenyl}-2-(4-bromo-phenyl)-2-methoxy-acetamide]: 0.0026 µM and 0.0049 µM.
Consider `C#Cc1ccc(NC(=O)c2ccc(CC[C@H]3COC(N)=N3)cc2)nc1` [Example 152, (S)-4-(2-(2-Amino-4,5-dihydrooxazol-4-yl)ethyl)-N-(5-ethynylpyridine-2-yl)benzamide], for which the figures for the Ki in test [1] and in test [2] were 0.008 µM and 0.0002 µM, respectively.
With `Cc1ccc(C(=O)Nc2ccc(CC[C@H]3COC(N)=N3)cc2)nc1` [Example 171, (S)-N-(4-(2-(2-Amino-4,5-dihydrooxazol-4-yl)ethyl)phenyl)-5-methylpicolinamide], the Ki in test [1] came out at 0.0008 µM; in test [2], 0.0011 µM.
For `NC1=N[C@@H](CCc2ccc(NC(=O)c3ccc(C(F)(F)F)cc3)cc2)CO1` [Example 17, N-{4-[2-((S)-2-Amino-4,5-dihydro-oxazol-4-yl)-ethyl]-phenyl}-4-trifluoromethyl-benzamide], the Ki turned out to be 0.0002 µM in test [1] and 0.0004 µM in test [2].
`NC1=N[C@@H](CCc2ccc(NC(=O)c3cc(Cl)cc(Cl)n3)cc2)CO1` [Example 158, (S)-N-(4-(2-(2-Amino-4,5-dihydrooxazol-4-yl)ethyl)phenyl)-4,6-dichloropicolinamide]: the Ki in test [1] and in test [2] was 0.0006 µM throughout.
Consider `NC1=N[C@@H](CCc2ccc(NC(=O)Nc3cccc(Cl)c3)cc2)CO1` [Example 95, 1-{4-[2-((S)-2-Amino-4,5-dihydro-oxazol-4-yl)-ethyl]-phenyl}-3-(3-chloro-phenyl)-urea], for which the Ki in test [1] and in test [2] was 0.0001 µM each time.
As for `CCc1nc(OC)cc(C(=O)Nc2ccc(CC[C@H]3COC(N)=N3)cc2)n1` [Example 203, 2-Ethyl-6-methoxy-pyrimidine-4-carboxylic acid {4-[2-((S)-2-amino-4,5-dihydro-oxazol-4-yl)-ethyl]-phenyl}-amide], the Ki in test [1] came out at 0.0008 µM; in test [2], 0.0014 µM.
On the same counts, the results for `Cc1cc(C(=O)Nc2ccc(CC[C@H]3COC(N)=N3)cc2)ncc1Cl` [Example 155, (S)-N-(4-(2-(2-Amino-4,5-dihydrooxazol-4-yl)ethyl)phenyl)-5-chloro-4-methylpicolinamide] are 0.0004 µM and 0.0006 µM.
As to `NC1=N[C@@H](CCc2ccc(NC(=O)c3cncc(Cl)n3)cc2)CO1` [Example 160, (S)-N-(4-(2-(2-Amino-4,5-dihydrooxazol-4-yl)ethyl)phenyl)-6-chloropyrazine-2-carboxamide], the values for the Ki in test [1] and in test [2] were 0.0047 µM and 0.0018 µM, respectively.
On the same counts, the results for `NC1=N[C@@H](CCc2ccc(NC(=O)C3CC(F)(F)C3)cc2)CO1` [Example 44, 3,3-Difluoro-cyclobutanecarboxylic acid {4-[2-((S)-2-amino-4,5-dihydro-oxazol-4-yl)-ethyl]-phenyl}-amide] are 0.0035 µM and 0.0014 µM.
